{"source": "paper PMC6282105", "about": "(Molecular Pharmaceutics, 2018)", "key": {"nitroreductase (NTR)": {"target": "T1, nitroreductase (NTR) (Escherichia coli, UniProt P38489)", "T1 sequence (P38489 1-217)": "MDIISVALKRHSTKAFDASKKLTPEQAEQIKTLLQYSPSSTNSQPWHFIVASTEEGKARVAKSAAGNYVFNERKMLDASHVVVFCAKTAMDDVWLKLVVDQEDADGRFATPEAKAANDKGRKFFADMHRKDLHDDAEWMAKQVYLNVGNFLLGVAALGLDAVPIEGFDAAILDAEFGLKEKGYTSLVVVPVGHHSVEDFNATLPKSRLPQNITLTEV", "assay": "NTR-mediated removal of the CNBz moiety, followed by analytical HPLC", "assay_type": "biochemical", "conditions": "0.3 equiv NTR, NADH as cofactor, analytical HPLC (Figure S2)"}, "[1]": {"assay": "Stability of the building block toward SPPS reagents", "assay_type": "physicochemical", "conditions": "SPPS conditions"}}}
{"smiles": "O=C(NCCCC(NC(=O)OCC1c2ccccc2-c2ccccc21)C(=O)O)NC(=O)OCc1ccc([N+](=O)[O-])cc1", "note": "(centres unmarked) [compound 1, 14-(9H-fluoren-9-yl)-1-(4-nitrophenyl)-3,5,12-trioxo-2,13-dioxa-4,6,11-triazatetradecane-10-carboxylic acid]", "values": [{"measurement": "time to full removal of the CNBz moiety", "setting": "nitroreductase (NTR)", "value": "≤ 5", "unit": "min"}, {"measurement": "stability toward 20% piperidine and TFA", "setting": "[1]", "value": "very stable"}]}
